Test results published in patent US7877928B2, “Apparatus for use with a method for mass production of seedling of seed potato” (Koesan County, priority 2005, dated 2011).

Tests used:
[1] = tested on: in vitro potato seedlings, potato cultivar "Superior"; test: Survival rates of stem cuttings of in vitro potato seedlings upon stem-cutting and acclimation according to supplemented components of MS medium; type: in vivo
Experimental: (§1) In order to determine conditions suitable for planting through stem cutting and acclimatizing tissue-cultured plantlets in DSCAC, the in vitro potato seedlings were evaluated for seedling quality and survival rates upon stem-cutting and acclimation according to the amount of supplemented components of MS medium.
(§2) The culture seedlings obtained from growing points collected from a seed potato cultivar, were tested for infection with viruses (PLRV, PVY, PVX, PVM, PVS and AMV) for selection of disease-free individuals. Then, plantlets were planted in 500-ml culture bottles containing 200 ml of a solid medium, which was prepared with a basic MS medium of pH 5.8 supplemented with 9 g/L of agar, and incubated for 25 days in a culture room under 4,500 Lux lighting for 18-20 hrs, and 0 Lux for 4-6 hrs using 4D fluorescent lamps, wherein the room temperature was maintained at 21° C. using an air conditioner. The in vitro potato seedlings were examined for growth states and survival rates upon stem-cutting and acclimation according to the amount of supplemented components of the medium.

[2] = tested on: in vitro potato seedlings, potato cultivar "Superior"; test: Seedling quality (growth state) of in vitro tissue-cultured potato plantlets according to supplemented components of MS medium; type: in vivo
Experimental: as §1, §2

[3] = coumarin 0.010 mg/L + sucrose 30 g/L in MS medium
[4] = coumarin 0.010 mg/L + sucrose 80 g/L in MS medium
[5] = coumarin 0.015 mg/L + sucrose 30 g/L in MS medium
[6] = coumarin 0.015 mg/L + sucrose 80 g/L in MS medium
[7] = coumarin 0.020 mg/L + sucrose 30 g/L in MS medium
[8] = coumarin 0.020 mg/L + sucrose 80 g/L in MS medium
[9] = coumarin 0.025 mg/L + sucrose 30 g/L in MS medium
[10] = coumarin 0.025 mg/L + sucrose 80 g/L in MS medium
[11] = coumarin 0.030 mg/L + sucrose 30 g/L in MS medium
[12] = coumarin 0.030 mg/L + sucrose 80 g/L in MS medium
[13] = coumarin 0.035 mg/L + sucrose 30 g/L in MS medium
[14] = coumarin 0.035 mg/L + sucrose 80 g/L in MS medium
[15] = Table 2: sucrose 30 g/L, coumarin 0 mg/L in MS medium
[16] = Table 2: sucrose 80 g/L, coumarin 0 mg/L in MS medium
[17] = Table 3: sucrose 30 g/L, hyponex 0 g/L in MS medium
[18] = Table 3: sucrose 80 g/L, hyponex 0 g/L in MS medium
[19] = sucrose 20 g/L in MS medium, 25 days
[20] = sucrose 40 g/L in MS medium, 25 days
[21] = sucrose 60 g/L in MS medium, 25 days
[22] = sucrose 80 g/L in MS medium, 25 days
[23] = sucrose 100 g/L in MS medium, 25 days
[24] = sucrose 120 g/L in MS medium, 25 days
[25] = sucrose 140 g/L in MS medium, 25 days

## O=c1ccc2ccccc2o1 [Coumarin, coumarin]
[1]; [3]
  Survival rates of stem cuttings: 73
[1]; [4]
  Survival rates of stem cuttings: 90
[1]; [5]
  Survival rates of stem cuttings: 78
[1]; [6]
  Survival rates of stem cuttings: 92
[1]; [7]
  Survival rates of stem cuttings: 80
[1]; [8]
  Survival rates of stem cuttings: 100
[1]; [9]
  Survival rates of stem cuttings: 83
[1]; [10]
  Survival rates of stem cuttings: 100
[1]; [11]
  Survival rates of stem cuttings: 88
[1]; [12]
  Survival rates of stem cuttings: 100
[1]; [13]
  Survival rates of stem cuttings: 81
[1]; [14]
  Survival rates of stem cuttings: 100
[2]; MS medium with 80 g/L sucrose and 0.025 mg/L coumarin, compared with other amounts
  Seedling quality and survival rates: highest seedling quality and survival rates
[2]; [3]
  Fresh weight: 0.57 g/plant
  Plant length: 6.1 cm/plant
[2]; [4]
  Fresh weight: 1.12 g/plant
  Plant length: 7.8 cm/plant
[2]; [5]
  Fresh weight: 0.63 g/plant
  Plant length: 6.5 cm/plant
[2]; [6]
  Fresh weight: 1.13 g/plant
  Plant length: 7.9 cm/plant
[2]; [7]
  Fresh weight: 0.71 g/plant
  Plant length: 6.7 cm/plant
[2]; [8]
  Fresh weight: 1.31 g/plant
  Plant length: 8.1 cm/plant
[2]; [9]
  Fresh weight: 0.84 g/plant
  Plant length: 6.9 cm/plant
[2]; [10]
  Fresh weight: 1.65 g/plant
  Plant length: 9.5 cm/plant
[2]; [11]
  Fresh weight: 0.86 g/plant
  Plant length: 6.7 cm/plant
[2]; [12]
  Fresh weight: 1.39 g/plant
  Plant length: 8.3 cm/plant
[2]; [13]
  Fresh weight: 0.71 g/plant
  Plant length: 6.4 cm/plant
[2]; [14]
  Fresh weight: 1.36 g/plant
  Plant length: 8.2 cm/plant

## OC[C@H]1O[C@@](CO)(O[C@H]2O[C@H](CO)[C@@H](O)[C@H](O)[C@H]2O)[C@@H](O)[C@@H]1O [Sucrose, sucrose]
[1]; [15]
  Survival rates of stem cuttings: 33
[1]; [16]
  Survival rates of stem cuttings: 70
[1]; [17]
  Survival rates of stem cuttings: 28
[1]; [18]
  Survival rates of stem cuttings: 79
[1]; sucrose 20 g/L in MS medium
  Survival rates of stem cuttings: 27%
[1]; sucrose 40 g/L in MS medium
  Survival rates of stem cuttings: 34%
[1]; sucrose 60 g/L in MS medium
  Survival rates of stem cuttings: 59%
[1]; sucrose 80 g/L in MS medium
  Survival rates of stem cuttings: 71%
[1]; sucrose 100 g/L in MS medium
  Survival rates of stem cuttings: 68%
[1]; sucrose 120 g/L in MS medium
  Survival rates of stem cuttings: 67%
[1]; sucrose 140 g/L in MS medium
  Survival rates of stem cuttings: 72%
[2]; [15]
  Fresh weight: 0.53 g/plant
  Plant length: 5.3 cm/plant
[2]; [16]
  Fresh weight: 0.72 g/plant
  Plant length: 8.6 cm/plant
[2]; [17]
  Fresh weight: 0.53 g/plant
  Plant length: 7.2 cm/plant
[2]; [18]
  Fresh weight: 1.03 g/plant
  Plant length: 7.59 cm/plant
[2]; [19]
  Fresh weight: 0.47 g/plant
  Plant length: 6.2 cm/plant
[2]; [20]
  Fresh weight: 0.53 g/plant
  Plant length: 7.4 cm/plant
[2]; [21]
  Fresh weight: 0.58 g/plant
  Plant length: 9.3 cm/plant
[2]; [22]
  Fresh weight: 0.75 g/plant
  Plant length: 9.5 cm/plant
[2]; sucrose 80 g/L in MS medium, compared with other amounts
  Benefit to in vitro plantlets (plant length, fresh weight, survival rates of stem cuttings): most beneficial
[2]; [23]
  Fresh weight: 0.69 g/plant
  Plant length: 6.1 cm/plant
[2]; [24]
  Fresh weight: 0.63 g/plant
  Plant length: 5.2 cm/plant
[2]; [25]
  Fresh weight: 0.67 g/plant
  Plant length: 2.1 cm/plant
